Where “and” joins values, the source holds several entries; their conditions need not be identical. Equal values may be shown once.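 Cultured in 96-well plates, cells were exposed to test compound for 48 hours across five concentrations. GI50 = concentration required for 50% inhibition of growth. TGI: total growth inhibition.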
Legend:
Assay in all cases: NCI anticancer screen, dose series, 48 h
ACHN renal = tested on: ACHN renal
HS 578T breast = tested on: HS 578T breast
KM12 colon = tested on: KM12 colon
M14 melanoma = tested on: M14 melanoma
NCI/ADR-RES ovarian = tested on: NCI/ADR-RES ovarian
OVCAR-8 ovarian = tested on: OVCAR-8 ovarian
SN12C renal = tested on: SN12C renal
SR leukemia = tested on: SR leukemia
T-47D breast = tested on: T-47D breast
UACC-62 melanoma = tested on: UACC-62 melanoma

Row | SMILES | TGI (ACHN renal) | TGI (HS 578T breast) | TGI (KM12 colon) | TGI (M14 melanoma) | TGI (NCI/ADR-RES ovarian) | TGI (OVCAR-8 ovarian) | TGI (SN12C renal) | TGI (SR leukemia) | TGI (T-47D breast) | TGI (UACC-62 melanoma) | GI50 (ACHN renal) | GI50 (KM12 colon) | GI50 (M14 melanoma) | GI50 (NCI/ADR-RES ovarian) | GI50 (T-47D breast) | GI50 (UACC-62 melanoma)
1 | Oc1ccc(C[C@@H]2CN[C@H](Cc3ccc(O)c(Br)c3)CN2)cc1 | > 100 µM | > 100 µM | > 100 µM | > 100 µM | > 100 µM | > 100 µM | > 100 µM | > 100 µM | > 100 µM | > 100 µM | – | – | – | – | – | –
2 | O=C(O[C@@H](/C=C/c1ccccc1)P1(=O)N(Cc2ccccc2)[C@@H]2CCCC[C@H]2N1Cc1ccccc1)c1ccccc1 | > 100 µM | > 100 µM | 15.5 µM | > 100 µM | > 100 µM | > 100 µM | 40.8 µM | > 100 µM | 3.41 µM | > 100 µM | – | – | – | – | – | –
3 | N#Cc1ccnc(C(=O)N2CCCC2C(=O)O)c1 (stereo not given) | > 100 µM | > 100 µM | > 100 µM | > 100 µM | > 100 µM | > 100 µM | > 100 µM | > 100 µM | > 100 µM | > 100 µM | – | – | – | – | – | –
4 | O=C(CCl)Nc1ccc(C(=O)N/N=C/c2ccc(Cl)cc2)cc1 | 6.57 µM and 9.22 µM | 6.7 µM | 3.84 µM and 2.74 µM | 3.42 µM and 18.3 µM | 8 µM and 3.38 µM | 5.29 µM and 6.97 µM | 9.71 µM and 7.07 µM | 3.93 µM | – | 3.2 µM and 8.78 µM | 2920 nM | 1840 nM | 1890 nM | 1500 nM | 195 nM | 1710 nM
5 | CCOC(=O)C(NC(=O)CC)(Nc1ccccc1F)C(F)(F)F (stereo not given) | > 100 µM | > 100 µM | > 100 µM | > 100 µM | > 100 µM | > 100 µM | > 100 µM | > 100 µM | > 100 µM | > 100 µM | – | – | – | – | – | –
6 | O=c1[nH]nc(-c2ccc([N+](=O)[O-])cc2)[nH]1 | > 100 µM | > 100 µM | > 100 µM | > 100 µM | > 100 µM | > 100 µM | > 100 µM | > 100 µM | > 100 µM | > 100 µM | – | – | – | – | – | –
7 | O=C(O)Cn1c[n+](NC(=O)Cc2ccccc2)cn1 | > 10 µM | > 10 µM | > 10 µM | > 10 µM | > 10 µM | > 10 µM | > 10 µM | > 10 µM | > 10 µM | > 10 µM | – | – | – | – | – | –
8 | CC(=O)Nc1ccc2c(c1)nc1c3ccccc3ccn21 | > 100 µM | > 100 µM | > 100 µM | > 100 µM | > 100 µM | > 100 µM | > 100 µM | > 100 µM | > 100 µM | > 100 µM | – | – | – | – | – | –
9 | O=C1c2c(Br)sc(Br)c2[C@H]2OC(=S)N[C@@H]12 | 11.1 µM | > 52.7 µM | 38.8 µM | 4.1 µM | 31.6 µM | 12 µM | 8.7 µM | 5.19 µM | 44.2 µM | 24.1 µM | – | – | – | – | – | –
10 | CO[C@H](C)[C@](O)(C(=O)OCC1=CCN2CC[C@@H](O)[C@H]12)C(C)C | > 100 µM | > 100 µM | > 100 µM | > 100 µM | > 100 µM | > 100 µM | > 100 µM | > 100 µM | > 100 µM | > 100 µM | – | – | – | – | – | –
11 | Cc1ccc2nc(Nc3ccccc3C)c(Nc3ccccc3C)nc2c1 | > 100 µM | > 100 µM | 45.8 µM | 81.8 µM | > 100 µM | > 100 µM | > 100 µM | > 100 µM | > 100 µM | > 90.7 µM | – | – | – | – | – | –
12 | COc1ccc(C(=C2C(=O)OC(=O)C2=C(C)C)c2ccc(OC)cc2)cc1 | > 100 µM | > 100 µM | > 100 µM | > 100 µM | > 100 µM | > 100 µM | > 100 µM | > 100 µM | > 100 µM | > 100 µM | – | – | – | – | – | –
13 | O=C1c2cccnc2C(=O)c2c1nc1ccccc1c2-c1ccc2c3c(nc4ccccc42)C(=O)c2cccnc2-c13 | 4.1 µM | 11.1 µM | 12.5 µM | 4.55 µM | 5.16 µM | 2.59 µM | 4.06 µM | 0.34 µM | 19.4 µM | 5.1 µM | – | – | – | – | – | –
14 | CCCCCc1cc(CCCC)sc1-c1ccco1 | > 100 µM | > 100 µM | > 100 µM | > 100 µM | > 100 µM | > 100 µM | > 100 µM | > 100 µM | > 100 µM | > 100 µM | – | – | – | – | – | –
15 | Cn1c2ccccc2c2c3c(=O)[nH][nH]c(=O)c3c3c4ccccc4n(C)c3c21 | > 100 µM | > 100 µM | > 100 µM | > 100 µM | > 100 µM | > 100 µM | > 100 µM | 0.252 µM | > 100 µM | > 100 µM | – | – | – | – | – | –
16 | COc1cc2c3cc1Oc1cc(ccc1O)C[C@@H]1c4c(cc(OC)c(O)c4Oc4ccc(cc4)C[C@@H]3[N+](C)(C)CC2)CC[N+]1(C)C | > 100 µM | 85.1 µM | > 100 µM | 30.4 µM | > 100 µM | > 100 µM | > 100 µM | > 100 µM | 71.2 µM | > 100 µM | – | – | – | – | – | –
17 | C=CCN(c1cc(OC)c2[nH]c(C(=O)O)c(C)c2c1[N+](=O)[O-])S(C)(=O)=O | > 100 µM | > 100 µM | > 100 µM | > 100 µM | > 100 µM | > 100 µM | > 100 µM | > 100 µM | > 100 µM | > 100 µM | – | – | – | – | – | –
18 | Fc1ccc(OCc2ccc3nc(-c4ccccc4)c(Cl)nc3c2)cc1 | 71.7 µM | 67.7 µM | > 100 µM | > 100 µM | > 100 µM | > 100 µM | > 100 µM | 40.8 µM | > 100 µM | > 100 µM | – | – | – | – | – | –
19 | O=C(O)C12C3C4(C(=O)O)C1C1(C(=O)O)C2C3(C(=O)O)C41 (stereo not given) | > 100 µM | > 100 µM | > 100 µM | > 100 µM | > 100 µM | > 100 µM | > 100 µM | > 100 µM | > 100 µM | > 100 µM | – | – | – | – | – | –
20 | O=C1C=CC(=O)c2c(O)c(N3CCN(c4ncccn4)CC3)c(Cl)c(O)c21 | 5.42 µM | 7.12 µM | 15.2 µM | 3.45 µM | 8.69 µM | 6.37 µM | 3.43 µM | 37.8 µM | 5.7 µM | 6.02 µM | – | – | – | – | – | –
21 | Fc1cccc(F)c1C1SCc2nc3cc(Cl)ccc3n21 (stereo not given) | > 100 µM | > 73.4 µM | 72.9 µM | > 100 µM | > 100 µM | > 100 µM | > 100 µM | 65.7 µM | > 100 µM | > 100 µM | – | – | – | – | – | –
22 | COc1ccc2c(c1)CCC(CN1CCN(CCOC(c3ccccc3)c3ccccc3)CC1)C2O (stereo not given) | 25.6 µM | 41.3 µM | 44.6 µM | 29.1 µM | 27.4 µM | 28.9 µM | 26.8 µM | 69.8 µM | 47.8 µM | 26.7 µM | – | – | – | – | – | –
23 | O=C1CCCC2=C1CC1=C(CCCC1=O)N2c1ccc(-c2ccccc2)cc1 | > 100 µM | > 100 µM | > 100 µM | > 100 µM | > 100 µM | > 100 µM | > 100 µM | > 100 µM | > 100 µM | > 100 µM | – | – | – | – | – | –
24 | Clc1sc(Cl)c2c1[C@H](Br)C[C@@H]2Cl | 37.4 µM | 49.8 µM | > 100 µM | 54.5 µM | 44.2 µM | 99 µM | 85.3 µM | 39.5 µM | > 100 µM | 69.1 µM | – | – | – | – | – | –
25 | Cc1nc2ccccc2n1Cc1ccc(NC(=S)Nc2ccccc2)cc1 | > 100 µM | > 100 µM | > 100 µM | > 100 µM | > 100 µM | > 100 µM | > 100 µM | > 100 µM | > 100 µM | > 100 µM | – | – | – | – | – | –
26 | CC(C)(C)C#CI1OC(=O)c2ccccc21 | 8.42 µM | > 92.3 µM | 18.4 µM | 15.3 µM | > 45.4 µM | 23.3 µM | 19 µM | 3.74 µM | 14.7 µM | 13.8 µM | – | – | – | – | – | –
27 | CCOC(=O)OC1(c2ccccc2)CCN(C)CC1 | > 100 µM | > 100 µM | > 100 µM | > 100 µM | > 100 µM | > 100 µM | > 100 µM | > 100 µM | > 100 µM | > 100 µM | – | – | – | – | – | –

Reference: PubChem BioAssay (NCI)
